From US9034794B2, “Method for post-emergence crabgrass control” (FMC Corporation, priority 2007, dated 2015)

Test system: Crabgrass (Digitaria sp.)
Experiment: Post-emergence control of crabgrass in greenhouse pots, application at the 1-2 leaf growth stage
Assay type: in vivo
Protocol: The compositions of the present invention were tested for herbicidal efficacy in the following manner:
For post-emergence testing, three disposable 3 inch square pots for each rate of application of each herbicide solution were filled with a soil, comprised of peat moss, vermiculite, bark ash, pine bark, limestone and a wetting agent (Metro Mix® 360 artificial soil, Scotts Company, Marysville, Ohio), to which about 20 to 30 crabgrass seeds (Digitaria sp.) seeds were planted. The pots were placed in a greenhouse and watered daily, thus allowing the seeds to germinate and the foliage to develop for 11 days, until the crabgrass was at the 1-2 leaf growth stage.
Pots designated for treatment were placed on a conveyor belt and the conveyor belt fed under a spray nozzle mounted about ten inches above the postemergent foliage. The spray of herbicidal solution was commenced and once stabilized; the pots were passed under the spray at a speed to receive a coverage equivalent of 30 gallons per acre. The application rates are those shown in Table 1 below for the individual herbicidal solutions and the herbicide compositions of the present invention. The post-emergence pots were immediately placed in the green-house and not watered for 24 hours after treatment. Thereafter they were regularly watered at ground level. The control of crabgrass was evaluated in each experimental test from 1 to 22 days after treatment (DAT). The results, shown as an average of the replications, were compared with results observed in untreated control pots in the same tests. All test treatments contained 0.25% (by volume) of a non-ionic surfactant.
Percent control was determined by comparing the treated plants to the untreated control using the following rating system:
The results, shown as an average of the replications, were compared with results observed in untreated control plots in the same trials.

Row | SMILES | Average % control (0.25 lb AI/Acre, 1 DAT) | Average % control (0.25 lb AI/Acre, 3 DAT) | Average % control (0.25 lb AI/Acre, 7 DAT) | Average % control (0.25 lb AI/Acre, 14 DAT) | Average % control (0.25 lb AI/Acre, 22 DAT) | Average % control (0.375 lb AI/Acre, 1 DAT) | Average % control (0.375 lb AI/Acre, 3 DAT) | Average % control (0.375 lb AI/Acre, 7 DAT) | Average % control (0.375 lb AI/Acre, 14 DAT) | Average % control (0.375 lb AI/Acre, 22 DAT) | Average % control (0.75 lb AI/Acre, 1 DAT) | Average % control (0.75 lb AI/Acre, 3 DAT) | Average % control (0.75 lb AI/Acre, 7 DAT) | Average % control (0.75 lb AI/Acre, 14 DAT) | Average % control (0.75 lb AI/Acre, 22 DAT)
1 | Cc1nn(-c2cc(NS(C)(=O)=O)c(Cl)cc2Cl)c(=O)n1C(F)F [A, N-[2,4-dichloro-5-[4-(difluoromethyl)-4,5-dihydro-3-methyl-5-oxo-1H-1,2,4-triazol-1-yl]phenyl]methanesulfonamide] | 20% | 20% | 5% | 0% | 0% | 10% | 25% | 10% | 0% | 0% |  |  |  |  | 
2 | CCCN(CCC)c1c([N+](=O)[O-])cc(C(F)(F)F)c(N)c1[N+](=O)[O-] [B, 2,4-dinitro-N^3,N^3-dipropyl-6-(trifluoromethyl)-1,3-benzenediamine] |  |  |  |  |  |  |  |  |  |  | 0% | 0% | 0% | 0% | 0%
